Measured values taken from US11324798B2, “Materials and methods for treatment of inflammation” (CYTOGEL PHARMA, LLC, priority 2010, dated 2022).
Where “and” joins values, the source holds several entries; their conditions need not be identical. Equal values may be shown once. Entries after “also recorded” stand apart in the source; their conditions may differ.

How the values were obtained:
[1] = Appearance of CYT-1010 preparations in 20% HPCD; format: physicochemical
Procedure: (§1) For the in vivo rat and mouse experiments, 5.5 ml of the 1 mg/ml stock solution of CYT-1010 was prepared freshly every experimental day with 20% HPCD dissolved in sterile distilled water. […] The vehicle was 20% HPCD dissolved in sterile distilled water. Further dilutions of the compound for the smaller administered doses were made with this vehicle, the 500 μg/ml and 100 μg/ml concentrations looked opalescent and the lower concentrations were clear. In rats 0.1 ml/100 g, in mice 0.1 ml/10 g volumes were administered i.v. 10 min before the induction of the inflammation.
Stock solution of the 100 μg/ml concentration of CYT-1010 (5.5 ml) was prepared fresh every experimental day with 20% hydroxypropyl-βcyclodextrin (HPCD) dissolved in sterile distilled water, shaken properly and sonicated. The vehicle was 20% HPCD dissolved in sterile distilled water. Further dilutions of the compound for the smaller administered doses were made with this vehicle. The applied concentrations were filtered through a 0.2 μm sterile teflon filter. […] The lower concentrations looked clear immediately. Non-filtered solutions were administered in the same concentrations in the parallel groups for comparison. Three doses of both the filtered and non-filtered CYT-1010 solutions (1, 10 and 100 μg/kg; 0.1 ml/10 g from the 0.1, 1 and 10 μg/ml solutions) were administered i.v. 5 min before the induction of the inflammation. Animals of the control group were treated with the same volume of the HPCD after or without the same filtration procedure.

[2] = test system: mustard oil-induced acute neurogenic inflammation in the paw skin of the rat; assay: 1% mustard oil-induced plasma protein extravasation in the acutely denervated rat hindpaw skin, Evans blue leakage; format: in vivo; details: for Evans blue leakage in the rat hindpaw skin / Evans blue leakage in the rat hindpaw skin, Mean: 1% mustard oil; for Evans blue leakage in the rat hindpaw skin: individual paws (rats 1-8, left/right)
Procedure: as §1
Both hindlegs of the rats were acutely denervated (the sciatic and the saphenous nerves were cut 30 min before the induction of inflammation) under deep sodium thiopental (50 mg/kg i.p.) anaesthesia to avoid central reflexes. Acute neurogenic inflammation in the dorsal skin of the hindpaws was evoked by topical application of 1% mustard oil (allylisothiocianante) dissolved in paraffin oil. Mustard oil in concentrations below 5% selectively stimulates TRPA1 ion channels on capsaicin-sensitive peptidergic nerves and induces the release of pro-inflammatory sensory neuropeptides such as CGRP and substance P, which cause vasodilation and plasma protein extravasation in the innervated area.
CYT-1010 (1, 10, 100 and 1000 μg/kg; 0.1 ml/100 g from the 1, 10, 100 and 1000 μg/ml solutions) was administered i.v. 5 min before the induction of the inflammation by mustard oil smearing. Rats in the control group were treated with the same volume of the vehicle, 20% hydroxypropyl-β-cyclodextrin (dissolved in sterile distilled water). The experimental protocol is also illustrated in FIG. 2.
40 male Wistar rats (220-260 g) altogether were divided into 5 experimental groups: Group 1: 8 vehicle-treated controls (n=8); Group 2: 1 μg/kg CYT-1010 (n=8); Group 3: 10 μg/kg CYT-1010 (n=8); Group 4: 100 μg/kg CYT-1010 (n=8); and Group 5: 1000 μg/kg CYT-1010 (n=8).
This study was undertaken in blocks with 10 rats per occasion. The whole set of data was obtained during 4 days, and there were rats of each group every day.
Extravasation of plasma albumin was measured by the Evans blue leakage method. Evans blue (50 mg/kg) was injected i.v. and neurogenic inflammation was induced 10 min later. Rats were killed by exsanguination 20 min after mustard oil application. The skin of the hindpaws was removed and the extravasated dye was extracted with formamide for 72 h at room temperature for photometric determination at 620 nm. The amount of the accumulated Evans blue, which quantitatively correlates with the intensity of plasma extravasation, was expressed as dye/g wet tissue (Szolcsányi and Barthó 1981; Helyes et al., 1997, 2001, 2006). Each of these publications is incorporated herein by reference in its entirety.
Results are expressed as the mean±s.e.m. and analyzed for statistical significance with one-way ANOVA followed by Dunnett post-hoc test when the data were compared to the control group. In the rat in vivo studies, multiple comparisons were also made with Bonferroni's modified t-test to compare the effects of the different doses to each other. *p<0.05 was considered to be significant.

## NC(Cc1ccc(O)cc1)C(=O)NC1CCCCNC(=O)C(Cc2ccccc2)NC(=O)C(Cc2c[nH]c3ccccc23)NC1=O [CYT-1010, H-Tyr-c-[D-Lys-Trp-Phe]]
[1]; 100 μg/ml in 20% HPCD, directly after preparation (Example 4)
  Appearance of preparation: opalescent
[1]; 100 μg/ml in 20% HPCD, on standing at 4° C. (Example 4)
  Appearance of preparation: cleared up 1 hour later
[1]; 500 μg/ml and 100 μg/ml in 20% HPCD
  Appearance of preparation: opalescent
[1]; 1 mg/ml stock in 20% HPCD in sterile distilled water
  Appearance of preparation: milky white micro-suspension
[1]; lower concentrations (below 100 μg/ml) in 20% HPCD
  Appearance of preparation: clear
[2]; 1 μg/kg i.v. (smallest/lowest dose)
  Inhibition of mustard oil-induced plasma protein extravasation: ~60%
[2]; 1 μg/kg i.v.
  Evans blue leakage in the rat hindpaw skin: 63.04 μg/g wet skin and 42.27 μg/g wet skin and 3.46 μg/g wet skin and 41.04 μg/g wet skin and 31.69 μg/g wet skin and 46.87 μg/g wet skin and 49.44 μg/g wet skin and 47.62 μg/g wet skin and 77.51 μg/g wet skin and 53.72 μg/g wet skin and 48.91 μg/g wet skin and 59.80 μg/g wet skin and 65.26 μg/g wet skin and 48.52 μg/g wet skin and 44.06 μg/g wet skin and 33.73 μg/g wet skin
  Evans blue leakage in the rat hindpaw skin, Mean: 47.31 μg/g wet skin
[2]; 10 μg/kg i.v.
  Evans blue leakage in the rat hindpaw skin: 87.67 μg/g wet skin and 79.89 μg/g wet skin and 77.63 μg/g wet skin and 87.14 μg/g wet skin and 108.49 μg/g wet skin and 73.59 μg/g wet skin and 65.69 μg/g wet skin and 78.05 μg/g wet skin and 94.66 μg/g wet skin and 36.25 μg/g wet skin and 51.07 μg/g wet skin and 41.10 μg/g wet skin and 46.38 μg/g wet skin and 91.18 μg/g wet skin and 61.48 μg/g wet skin and 77.24 μg/g wet skin
  Evans blue leakage in the rat hindpaw skin, Mean: 72.34 μg/g wet skin
[2]; 100 μg/kg i.v.
  Evans blue leakage in the rat hindpaw skin: 71.20 μg/g wet skin and 54.84 μg/g wet skin and 83.92 μg/g wet skin and 49.09 μg/g wet skin and 54.86 μg/g wet skin and 59.74 μg/g wet skin and 88.54 μg/g wet skin and 56.89 μg/g wet skin and 75.00 μg/g wet skin and 56.81 μg/g wet skin and 63.41 μg/g wet skin and 68.93 μg/g wet skin and 49.74 μg/g wet skin and 52.19 μg/g wet skin and 49.21 μg/g wet skin and 80.28 μg/g wet skin
  Evans blue leakage in the rat hindpaw skin, Mean: 63.42 μg/g wet skin
[2]; 1000 μg/kg i.v.
  Evans blue leakage in the rat hindpaw skin: 55.85 μg/g wet skin and 66.07 μg/g wet skin and 85.40 μg/g wet skin and 79.34 μg/g wet skin and 154.03 μg/g wet skin and 74.05 μg/g wet skin and 88.00 μg/g wet skin and 62.92 μg/g wet skin and 55.80 μg/g wet skin and 67.62 μg/g wet skin and 57.47 μg/g wet skin and 37.45 μg/g wet skin and 46.10 μg/g wet skin and 76.56 μg/g wet skin and 54.68 μg/g wet skin and 63.41 μg/g wet skin
  Evans blue leakage in the rat hindpaw skin, Mean: 70.30 μg/g wet skin
[2]; 1, 10, 100 and 1000 μg/kg i.v. pretreatment
  Effect on mustard oil-induced plasma protein extravasation in the rat skin: significant inhibition; also recorded: significant anti-inflammatory effect; also recorded: significantly decreased
